# Test results from PubChem BioAssay (NCI).
# Several values for one entry are separate records, joined by “and”; a condition that tells them apart may be missing. Equal entries are not always repeated.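 Results reflect a 48-hour exposure of cells in 96-well plates to compound at five concentrations. GI50 = concentration required for 50% inhibition of growth. TGI denotes the concentration required for complete inhibition of growth.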
# Assays:
# Assay in all cases: DTP human tumour cell line panel, 48 h
# SK-OV-3 ovarian = system: SK-OV-3 ovarian
# SF-295 CNS = system: SF-295 CNS
# OVCAR-4 ovarian = system: OVCAR-4 ovarian
# U251 CNS = system: U251 CNS
# OVCAR-5 ovarian = system: OVCAR-5 ovarian
# NCI-H460 lung = system: NCI-H460 lung
# NCI/ADR-RES ovarian = system: NCI/ADR-RES ovarian
# NCI-H23 lung = system: NCI-H23 lung
# UO-31 renal = system: UO-31 renal
# OVCAR-8 ovarian = system: OVCAR-8 ovarian
SMILES,GI50 (SK-OV-3 ovarian) [µM],GI50 (SF-295 CNS) [µM],GI50 (OVCAR-4 ovarian) [µM],TGI (OVCAR-4 ovarian) [µM],GI50 (U251 CNS),TGI (U251 CNS),GI50 (OVCAR-5 ovarian) [µM],TGI (OVCAR-5 ovarian) [µM],GI50 (NCI-H460 lung) [µM],TGI (NCI-H460 lung) [µM],TGI (NCI/ADR-RES ovarian) [µM],TGI (SK-OV-3 ovarian) [µM],TGI (SF-295 CNS) [µM],TGI (NCI-H23 lung) [µM],TGI (UO-31 renal) [µM],TGI (OVCAR-8 ovarian) [µM],GI50 (NCI-H23 lung) [µM],GI50 (UO-31 renal) [µM],GI50 (OVCAR-8 ovarian) [µM],GI50 (NCI/ADR-RES ovarian) [µM]
COc1cc(NCc2ccc3nc(N)nc(N)c3c2C)cc(OC)c1OC (tested in a mixture with another compound),0.0189,0.000372,0.15,99.8,0.00227 µM and 0.016 µM,88.5 µM and 48.7 µM,0.0287,35.9,0.000169,34.8,229,,,,,,,,,
N#C/C1=C(\N)CCSSSC1,,,,> 100,,> 100 µM,,> 100,,51.2,,> 100,50.8,> 100,> 100,43.2,,,,
CCOc1ccccc1NC(=O)C(=O)CC(=O)c1sc(Nc2nnc(-c3ccc(Cl)c(Cl)c3)o2)nc1C,,,,> 100,,41.4 µM,,> 100,,> 100,,> 100,> 100,> 100,> 100,> 100,,,,
OCC1OC(c2nc(C3=NCCCN3)cs2)C(O)C1O (stereo unspecified),,,,> 100,,> 100 µM,,> 100,,> 100,,> 100,> 10,> 100,> 100,> 100,,,,
O=C(/C=C/c1cccc2ccccc12)c1ccccc1Cl,,,,28.5,,23.7 µM,,,,29.2,,43.1,,28.5,28,26.7,,,,
C1=CC(N(c2ccccc2)C2C=CCCC2)CCC1 (stereo unspecified),,,,,,> 100 µM,,,,> 100,,> 100,> 100,> 100,,> 100,,,,
CCC[CH2][Sn]([Cl])([CH2]CCC)[CH2]CCC,0.181,0.12,0.0998,0.242,0.113 µM,0.236 µM,0.117,0.248,0.13,0.298,,0.56,0.245,0.211,0.312,0.287,0.0552,0.16,0.145,
CCCc1nc(NC#N)nc(C(=O)Nc2ccccc2)c1CC,,,,,,> 100 µM,,> 100,,> 100,,,> 100,> 100,> 100,> 100,,,,
CC12CP(=O)(c3ccccc3)CC1C2(Cl)Cl (stereo unspecified),,,,> 100,,> 100 µM,,,,> 100,,> 100,> 100,> 100,,> 100,,,,
Cc1ncc(C(=O)Nc2ccc(CN3CCN(C)CC3)c(C(F)(F)F)c2)cc1C#Cc1cnc(N)c2ccncc12,2.79,1.23,,,1.55 µM,3.35 µM,1.45,4.53,1.38,3.02,5.47,7.13,2.93,3.35,2.27,6.55,1.34,0.457,1.69,1.61
Cc1nn(-c2ccc(Cl)cc2)c2nc3c(nc12)C(=O)c1ccccc1-3,47.3,> 100,,,> 100 µM,> 100 µM,> 100,> 100,,,> 100,> 100,> 100,> 100,> 100,,> 100,> 100,,> 100
COc1ccc(C(=O)/C=C/c2cc(-c3cc(OC)c(OC)c(OC)c3)n[nH]2)cc1OC,2.79,,2.69,16.6,1.23 µM,2.48 µM,1.59,3.03,1.41,3.33,15.7,7.83,,5.24,2.57,2.73,2.15,1.28,1.32,3.13
CCOC(=O)C(=[N+]=[N-])[Si](C)(C)C,,,,> 100,,69.2 µM,,> 100,,> 100,,,> 100,> 100,,> 100,,,,
CCOc1ccc(NC(=O)CC#N)cc1,,,,> 100,,> 100 µM,,> 100,,> 100,,> 100,> 100,> 100,> 100,> 100,,,,
O=C(Nc1nc(=S)c2c(ncn2CCOC(=O)c2ccccc2)[nH]1)c1ccccc1,,,,57.7,,> 100 µM,,> 100,,> 100,,> 100,> 100,,> 100,> 100,,,,
CC1CN(C(=O)CN2CCC(CCCCN(C)C)CC2)c2ccccc2NC1=O (stereo unspecified),,,,> 100,,> 100 µM,,> 100,,> 100,,> 100,> 100,> 100,> 100,,,,,
COC(=O)C(Cc1nc2ccc(Cl)cc2[nH]c1=O)/C(=N\N)C(=O)Nc1cc(C)c(Cl)cc1S(=O)(=O)O (stereo unspecified),,,,> 100,,> 100 µM,,> 100,,> 100,,> 100,> 100,> 100,> 100,> 100,,,,
CC(=O)c1sc(Nc2nnc(-c3ccc(-c4nnc(Nc5nc(C)c(C(C)=O)s5)o4)cc3)o2)nc1C,,,,> 100,,> 100 µM,,> 10,,> 100,,> 10,> 100,> 100,> 10,> 100,,,,
CCOC(=O)Nc1ccc(C)c(NC(=O)OCC)c1,,,,,,> 100 µM,,> 100,,> 100,> 100,> 100,> 100,> 100,> 100,> 100,,,,
Cc1cc(Cl)ccc1NC(=O)C(=O)Cc1nc2ccccc2o1,,,,> 100,,> 100 µM,,> 100,,> 100,,> 100,> 100,> 100,> 100,> 100,,,,

SMILES,GI50 (SK-OV-3 ovarian) [µM],GI50 (SF-295 CNS) [µM],GI50 (OVCAR-4 ovarian) [µM],TGI (OVCAR-4 ovarian) [µM],GI50 (U251 CNS),TGI (U251 CNS),GI50 (OVCAR-5 ovarian) [µM],TGI (OVCAR-5 ovarian) [µM],GI50 (NCI-H460 lung) [µM],TGI (NCI-H460 lung) [µM],TGI (NCI/ADR-RES ovarian) [µM],TGI (SK-OV-3 ovarian) [µM],TGI (SF-295 CNS) [µM],TGI (NCI-H23 lung) [µM],TGI (UO-31 renal) [µM],TGI (OVCAR-8 ovarian) [µM],GI50 (NCI-H23 lung) [µM],GI50 (UO-31 renal) [µM],GI50 (OVCAR-8 ovarian) [µM],GI50 (NCI/ADR-RES ovarian) [µM]
CCN1CCC(O)(c2ccc(OC)cc2)C(C(=O)c2ccc(OC)cc2)C1 (stereo unspecified),,,,32.4,,30.5 µM,,32.3,,59.5,,> 100,> 100,35.3,35.3,43.4,,,,
CCC(C)COC(=O)c1ccc(N=Cc2ccc(C=Nc3ccc(C(=O)OCC(C)CC)cc3)cc2)cc1 (stereo unspecified),,,,> 100,,> 100 µM,,> 100,,> 100,,> 100,> 100,> 100,> 100,> 100,,,,
O=C1/C(=C/c2ccc3c(c2)OCO3)SC2C=Nc3ccccc3N12 (stereo unspecified),,,,> 100,,> 100 µM,,> 100,,> 100,,,> 100,> 100,> 100,> 100,,,,
CC(=O)Oc1c2c(c(O)c3ccccc13)C(n1cnc3c(ncn3C3OC(CO)C4OC(C)(C)OC43)c1=N)CCC2 (stereo unspecified),,,,,,33.3 µM,,35.9,,62.4,,33.1,27,36.7,29.8,23.9,,,,
CCOC(=O)Nc1ccc(-c2nc(-c3cccc(OCCN4CCOCC4)c3)c(-c3ccnc(Br)c3)[nH]2)cc1,2.66,,4.36,> 100,2.75 µM,> 100 µM,5.11,> 100,3.32,> 100,> 100,6.25,,5.6,> 100,> 100,2.19,2.72,3.73,3.39
CCOc1ccc(NC(=O)C(=O)CC(=O)c2c(C)n([O-])c3ccccc3[n+]2=O)cc1,,,,> 100,,> 100 µM,,> 100,,> 100,,> 100,> 100,> 100,> 100,> 100,,,,
COc1cc(-c2cc(-c3cc4c([nH]c5ccccc54)c(-c4cc(OC)c(OC)c(OC)c4)n3)cc(-c3ccccc3)n2)cc(OC)c1OC,5,,5.31,74.2,4.25 µM,29.1 µM,25.7,> 100,3.37,18.1,94.8,51.9,,> 100,74.4,43.4,5.52,3.02,4.01,3.12
COc1cccc(C2=NC(C(C)C)CO2)c1 (stereo unspecified),,,,> 100,,,,> 100,,> 100,,> 100,> 100,> 100,> 100,> 100,,,,
COC1(OC)C(N(C)C)=C(Cl)C(=O)/C1=C/C=O,,,,> 100,,> 100 µM,,> 100,,> 100,,> 100,> 100,> 100,> 100,> 100,,,,
Cc1[nH]c2ccccc2c1C(=O)/C=C/c1ccccc1O,,,,> 100,,> 100 µM,,> 100,,> 100,,> 100,> 100,> 100,> 100,> 100,,,,
N#CC(C(=O)C(=O)C(C#N)c1ccc(Br)cc1)c1ccc(Br)cc1 (stereo unspecified),,,,24.9,,23.8 µM,,32.1,,30.5,,33.1,26.6,14.1,29.9,,,,,
Oc1cccnc1[Se],,,,,,> 100 µM,,> 100,,> 100,> 100,> 100,97.3,> 100,> 100,> 100,,,,
[N-]=[N+]=N[C@H]1C[C@@H](CO)O[C@H]1n1cnc2c(N)ncnc21,,,,> 100,,> 100 µM,,> 100,,> 100,,,> 100,> 100,> 100,> 100,,,,
Cc1ccc(NC(=O)CCc2cc(C(C)(C)C)nc(=S)[nH]2)cc1C,,,,,,> 100 µM,,> 100,,> 100,,> 100,> 100,> 100,> 100,> 100,,,,
Nc1nc(/C=C\c2ccc([N+](=O)[O-])s2)nc(N2CCCC2)n1,9.25,4.4,5,14.1,,,15.7,30.7,3.68,16.1,23.2,30.4,21.3,18.6,22.2,22.5,5.84,7.58,3.49,4.51
COc1ccc(Nc2nnc(-c3cc(O)ccc3O)s2)cc1,,> 50,11.7,> 50,16.7 µM,> 50 µM,> 50,> 50,40.4,> 50,> 50,,> 50,> 50,> 50,> 50,> 50,47.3,30.4,> 50
O=C1C=CC(=O)c2cc3cc(CBr)ccc3cc21,19.1,25.9,,,14.4 µM,36.2 µM,9.96,33.6,22,> 80.3,32.4,> 57.6,> 73.9,30.8,> 100,> 77.3,9.84,3.59,5.88,6.78
C=CCCCCOc1ccccc1-c1cnc(OCCCCC=C)n1C,3.96,4.03,10.3,50.7,,,5.22,23.1,,,5.96,19.7,20.1,26.8,20.7,17.2,5.04,3.09,4.23,2.29
CN(C)CC1CCCC/C1=N/OC(=O)c1ccc(Cl)cc1 (stereo unspecified),,,,> 100,,> 100 µM,,> 100,,> 100,,> 100,> 100,> 100,> 100,> 100,,,,
COc1ccc(CC2NCCc3c2[nH]c2ccccc32)cc1 (stereo unspecified),,,,> 100,,> 100 µM,,> 100,,> 100,,> 100,> 100,,> 100,> 100,,,,
